Laboratory results reported in patent publication US20090191131A1, “USE OF PARTICULATE CONTRAST AGENTS IN DIAGNOSTIC IMAGING FOR STUDYING PHYSIOLOGICAL PARAMATERS” (priority 1998, published 2009).

Key:
[1] = phosphatidylcholines; cited from earlier work
[2] = cited from earlier work
[3] = Temperature sensitivity of in vitro T1 relaxivity (r1), 0.47 T; type: physicochemical
Excerpt: FIG. 1 of the accompanying drawings and Table 5 below show the temperature sensitivity of in vitro T1 relaxivity (r1) for liposome encapsulated GdDTPA-BMA and GdHPDO3A, respectively (0.47T).

Compound | Transition temperature Tc [1] [°C] | further results
CCCCCCCCCCCCCCCCCC(=O)OC[C@H](COP(=O)([O-])OCC[N+](C)(C)C)OC(=O)CCCCCCCCCCCCCCC [PC 18:0-16:0] | 44 | 
CCCCCCCCCCC/C=C\CCCCC(=O)OC[C@H](COP(=O)([O-])OCC[N+](C)(C)C)OC(=O)CCCC/C=C\CCCCCCCCCCC [PC 18:1c6] | 1 | 
CCCCCCCCCCCCCCC(=O)OC[C@H](COP(=O)([O-])OCC[N+](C)(C)C)OC(=O)CCCCCCCCCCCCCC [PC 15:0] | 33 | 
CCCCCCCC/C=C/CCCCCCCC(=O)OC[C@H](COP(=O)([O-])OCC[N+](C)(C)C)OC(=O)CCCCCCC/C=C/CCCCCCCC [PC 18:1t9] | 12 | 
CCCCCCCC/C=C\CCCCCCCC(=O)OC[C@H](COP(=O)([O-])OCC[N+](C)(C)C)OC(=O)CCCCCCC/C=C\CCCCCCCC [PC 18:1c9] | −20 | 
CCCCCCCCCCCCCCCCCCCCC(=O)OC[C@H](COP(=O)([O-])OCC[N+](C)(C)C)OC(=O)CCCCCCCCCCCCCCCCCCCC [PC 21:0] | 72 | 
CCCCCCCCCCCCC(=O)OC[C@H](COP(=O)([O-])OCC[N+](C)(C)C)OC(=O)CCCCCCCCCCCC [PC 13:0] | 14 | 
CCCCCCCCCCCCCCCCCCCCCCCC(=O)OC[C@H](COP(=O)([O-])OCC[N+](C)(C)C)OC(=O)CCCCCCCCCCCCCCCCCCCCCCC [PC 24:0] | 80 | 
CCCCCCCCCCCCCCCCCCCC(=O)OC[C@H](COP(=O)([O-])OCC[N+](C)(C)C)OC(=O)CCCCCCCCCCCCCCCCCCC [PC 20:0] | 66 | 
CCCCCCCCCCCCCCCCC(=O)OC[C@H](COP(=O)([O-])OCC[N+](C)(C)C)OC(=O)CCCCCCCCCCCCCCCC [PC 17:0] | 48 | 
CCCCCCCCCCCCCCCCCC(=O)O[C@H](COC(=O)CCCCCCCCCCCCC)COP(=O)([O-])OCC[N+](C)(C)C [PC 14:0-18:0] | 40 | 
CCCCCCCCCCCCOC(=O)C(C)n1ccnc1 (stereo not shown) [DIP] |  | pKa [2]: 6.8; charged form ([2]; lysosomal pH (5.2)): over 97%; non-ionized (non/low surfactant activity) form ([2]; pH 7.3-7.4 (physiological)): 80%
CCCCCCCCCCCCCCCCCCCCCC(=O)OCC(COP(=O)([O-])OCC[N+](C)(C)C)OC(=O)CCCCCCCCCCCCCCCCCCCCC (stereo not shown) [PC 22:0, Dibehenoyl-PC] | 75 | 
CCCCCCCCCCCCCCCCCC(=O)O[C@H](COC(=O)CCCCCCCCCCCCCCC)COP(=O)([O-])OCC[N+](C)(C)C [PC 16:0-18:0] | 49 | 
CC(O)CN1CCN(CC(=O)[O-])CCN(CC(=O)[O-])CCN(CC(=O)[O-])CC1.[Gd+3] (stereo not shown) [Control, GdHPDO3A] |  | r1 ([3]; 20 °C): 4.53 s⁻¹ mM⁻¹; r1 ([3]; 25 °C): 4.27 s⁻¹ mM⁻¹; r1 ([3]; 30 °C): 3.94 s⁻¹ mM⁻¹; r1 ([3]; 37 °C): 3.75 s⁻¹ mM⁻¹; r1 ([3]; 45 °C): 3.07 s⁻¹ mM⁻¹; r1 ([3]; 55 °C): 2.82 s⁻¹ mM⁻¹; r1 ([3]; 60 °C): 2.54 s⁻¹ mM⁻¹
CCCCCCCCCCCCCCCCCCCCCCC(=O)OC[C@H](COP(=O)([O-])OCC[N+](C)(C)C)OC(=O)CCCCCCCCCCCCCCCCCCCCCC [PC 23:0] | 79 | 
CCCCCCCCCCCCCCCC(=O)O[C@H](COC(=O)CCCCCCCCCCCCC)COP(=O)([O-])OCC[N+](C)(C)C [PC 14:0-16:0] | 35 | 
